PMC9045296, “Development of Antifungal Peptides against Cryptococcus neoformans; Leveraging Knowledge about the cdc50Δ Mutant Susceptibility for Lead Compound Development” (Microbiology Spectrum, 2022)
Values after ≈ are worked out from the molar mass of the structure shown. Residues, ends and D or L forms follow the SMILES beside them. *: point of attachment. Palmitoyl = CCCCCCCCCCCCCCCC(=O)*; Myristoyl = CCCCCCCCCCCCCC(=O)*; Decanoyl = CCCCCCCCCC(=O)*; Hexanoyl = CCCCCC(=O)*

Experiments:
Assay type in all cases: cell-based, Cryptococcus neoformans
[1] = test system: C. neoformans wild-type strain H99; assay: microbe, parasite or virus in culture; details: for MIC H99: Table S1, drug alone, wild type H99; for MIC: drug alone, H99 wild type, CLSI broth microdilution, RPMI, 2.5*10^3 cells/mL, 37°C, read at 24 and 48 h
Method: (§1) Our assays followed standard CLSI protocol for broth microdilution assays using yeasts ([32]). Microbes were passaged in YPD media at 37°C with mixing for 2 days before harvesting with an inoculation loop to prepare monocultures on Sabouraud Dextrose Agar (SDA) plates. Monocultures on SDA plates were incubated for 2 days at 37°C before harvesting cells for microdilution assays. RPMI media (100 μL) was charged to each of the 96 wells in a 96-well plate, with an additional 100 μL in the first column. Peptide-DMSO solution (4 μL) at 12.8 mg/mL was charged to each of the wells in the first column. The 100 μL was serially diluted by a factor of 2 from the first column to the 11th column. Microbe inoculant was then prepared. An inoculation loop was used to transfer 1–3 colonies of cells to 1 mL phosphate buffer solution (PBS). The PBS and microbe solution was made uniform by vortex mixing. Cell concentration was computed by comparing the absorbance at 530 nm to 1x McFarland standard solution and multiplying the resulting ratio by 10^7 cell/mL conversion factor. Plate inoculant was prepared by diluting the PBS microbe solution to 5000 cell/mL, in RPMI media. A 100 μL aliquot of cells was transferred to each of the wells on the plate other than column 11 for the no growth control. The operating volume was 200 μL, with 500 CFU per well for a final concentration of 2.5*10^3 cells/mL. Inoculated plates were incubated for 48 h at 37°C and read at 24 and 48 h ([33]).

cdc50Δ mutant strain = details: Table S1, drug alone
Method: as §1

C. neoformans H99 = details: for MIC of caspofungin in the presence of 0.5 μg/mL peptide: H99, checkerboard, caspofungin alone 16 μg/mL; for FIC H99 Caspofungin: Table S1, concentration of caspofungin in combination with the peptide; for FIC H99 Peptide: Table S1, concentration of peptide in combination with caspofungin
Method: (§2) Again, 200 μL was the operating volume, 500CFU per well, 2.5*10^3 cell/mL. Plates were incubated for 48 h at 37°C and read thereafter. The Fractional Inhibitory Concentration Index were calculated in Equation 1: FICIndex=FICA/MICA+FICB/MICB

ΔCDC50 mutant strain = details: for FIC ΔCDC50 Caspofungin: Table S1, concentration of caspofungin in combination with the peptide; for FIC ΔCDC50 Peptide: Table S1, concentration of peptide in combination with caspofungin
Method: as §2

[2] = test system: exofacial PS on C. neoformans cells; assay: AF350-annexin V flow cytometry assay; details: 0.128 mg/mL peptide, 5*10^6 cell/mL, 20 min at 25°C, triplicate; control 0.2 ± 0.1%
Text: We sought to determine whether the activities of the peptides were related to the lipid-flipping activity of the P4-ATPase. […] The intensity of the AF350-annexin V signal corresponds to concentration of PS on the exofacial side of the membrane. The propidium iodine signal corresponds to cell viability. […] Single cells were first selected and gated based on morphology to ensure homogeneity among the cell population (4A, 4B). We examined cells with low propidium iodine intensity (PI-A < 9 RU) and high AF350-annexin V intensity (Annexin V-A > 9 RU) (4C, 4D). Under these gating parameters there should be, respectively, low nonspecific cell death and high exofacial PS.
Stock microbes were defrosted from the –80°C freezer and were passed twice for 48 h each in YPD media. The YPD media was removed by spinning down and the supernatant was decanted. Pelletized cells were resuspended in 1 mL PBS media and washed for 5 min with incubation at 25°C and 250 RPM. Washed cells were spun down again and suspended in 1 mL of PBS solution. cells were diluted 20-fold into 1 mL fungal working solution in an eppendorf. Cell concentration was quantified via comparison to 1X McFarlain’s standard on a plate reader using the absorbance value at 530 nm. An aliquot of 1*10^6 cells in 100 μL was created (1*10^7cell/mL). A 100 μL aliquot of peptide working solution at 0.256 mg/mL was added to the cell suspension for final operating parameters of 200 μL, 0.128 mg/mL peptide, and 5*10^6cell/mL. The cells were incubated for 20 min at 25°C and 250RPM. Baseline and experimental samples were prepared in triplicate. Cells were stained using an operating concentration of 0.001 mg/mL Propidium Iodine (PI) and a 40-fold dilution of Alexa Fluor 350 labeled annexin V as per manufactures instructions. After staining the cells, samples were spun down and supernatant decanted. Cells were then fixed in 4% formaldehyde for 5 min. Fixed cells were spun down and supernatant decanted and resuspended in 400 μL 1% formaldehyde for flowcytometry. Samples were collected at a slow flow rate on a MACS Quant 10 device (Miltenyi Biotech, Auburn, CA) with 50,000 events collected per injection.

Compound | MIC H99 [1] [mg/L] | FIC H99 Caspofungin (C. neoformans H99; H99) [µg/mL] | FIC H99 Peptide (C. neoformans H99; H99) [µg/mL] | FIC ΔCDC50 Caspofungin (ΔCDC50 mutant strain) [µg/mL] | FIC ΔCDC50 Peptide (ΔCDC50 mutant strain) [µg/mL] | further results
CCCCCCCCCC(=O)N[C@@H](CO)C(=O)N[C@@H](CCC(=O)O)C(=O)N[C@@H](CO)C(=O)NCC(=O)N[C@H](C(=O)N[C@@H](C)C(=O)N[C@@H](Cc1c[nH]c2ccccc12)C(=O)NCC(=O)NCC(=O)N[C@H](C(=O)N[C@@H](CCCCN)C(=O)N[C@@H](CCCCN)C(=O)N[C@@H](CC(N)=O)C(=O)N[C@@H](Cc1ccc(O)cc1)C(=O)N[C@@H](C)C(=O)O)[C@@H](C)CC)[C@@H](C)CC [AS15-Da] (Decanoyl-SESGIAWGGIKKNYA-OH) | > 128 |  |  |  |  | 
CCCCCC(=O)N[C@@H](CO)C(=O)N[C@@H](CCC(=O)O)C(=O)N[C@@H](CO)C(=O)NCC(=O)N[C@H](C(=O)N[C@@H](C)C(=O)N[C@@H](Cc1c[nH]c2ccccc12)C(=O)NCC(=O)NCC(=O)N[C@H](C(=O)N[C@@H](CCCCN)C(=O)N[C@@H](CCCCN)C(=O)N[C@@H](CC(N)=O)C(=O)N[C@@H](Cc1ccc(O)cc1)C(=O)N[C@@H](C)C(=O)O)[C@@H](C)CC)[C@@H](C)CC [AS15-Ha] (Hexanoyl-SESGIAWGGIKKNYA-OH) | > 128 |  |  |  |  | 
CCCCCCCCCCCCCC(=O)N[C@@H](CO)C(=O)N[C@@H](CCC(=O)O)C(=O)N[C@@H](CO)C(=O)NCC(=O)N[C@H](C(=O)N[C@@H](C)C(=O)N[C@@H](Cc1c[nH]c2ccccc12)C(=O)NCC(=O)NCC(=O)N[C@H](C(=O)N[C@@H](CCCCN)C(=O)N[C@@H](CCCCN)C(=O)N[C@@H](CC(N)=O)C(=O)N[C@@H](Cc1ccc(O)cc1)C(=O)N[C@@H](C)C(=O)O)[C@@H](C)CC)[C@@H](C)CC [AS15-Ma] (Myristoyl-SESGIAWGGIKKNYA-OH) | > 128 | 8 | 0.5 | 0.25 | 0.25 | MIC ΔCDC50 (cdc50Δ mutant strain): 8 mg/L (≈ 4.47 µM); MIC of caspofungin in the presence of 0.5 μg/mL peptide (C. neoformans H99): 8 mg/L; percentage of cells with low propidium iodine (PI-A < 9 RU) and high AF350-annexin V intensity (Annexin V-A > 9 RU) [2]: 12.1 ± 2.0%
CCCCCCCCCCCCCCCC(=O)N[C@@H](CO)C(=O)N[C@@H](CCC(=O)O)C(=O)N[C@@H](CO)C(=O)NCC(=O)N[C@H](C(=O)N[C@@H](C)C(=O)N[C@@H](Cc1c[nH]c2ccccc12)C(=O)NCC(=O)NCC(=O)N[C@H](C(=O)N[C@@H](CCCCN)C(=O)N[C@@H](CCCCN)C(=O)N[C@@H](CC(N)=O)C(=O)N[C@@H](Cc1ccc(O)cc1)C(=O)N[C@@H](C)C(=O)O)[C@@H](C)CC)[C@@H](C)CC [AS15-Pa] (Palmitoyl-SESGIAWGGIKKNYA-OH) | > 128 | 8 | 0.5 | 2 | 2 | 
CCCCCCCCCCCCCCCC(=O)N[C@@H](Cc1c[nH]c2ccccc12)C(=O)NCC(=O)NCC(=O)N[C@H](C(=O)N[C@@H](CCCCN)C(=O)N[C@@H](CCCCN)C(=O)N[C@@H](CC(N)=O)C(=O)N[C@@H](Cc1ccc(O)cc1)C(=O)N[C@@H](C)C(=O)O)[C@@H](C)CC [AW9-Pa] (Palmitoyl-WGGIKKNYA-OH) | > 128 | 8 | 0.5 | 2 | 1 | MIC ΔCDC50 (cdc50Δ mutant strain): 8 mg/L (≈ 6.28 µM); MIC of caspofungin in the presence of 0.5 μg/mL peptide (C. neoformans H99): 8 mg/L; FIC Index H99 (C. neoformans H99; Table S1, caspofungin + peptide, H99): 0.5-1; FIC Index ΔCDC50 (ΔCDC50 mutant strain; Table S1, caspofungin + peptide): 0.75
CCCCCCCCCCCCCC(=O)N[C@@H](CO)C(=O)N[C@@H](CCC(=O)O)C(=O)N[C@@H](CO)C(=O)NCC(=O)N[C@H](C(=O)N[C@@H](C)C(=O)N[C@@H](Cc1c[nH]c2ccccc12)C(=O)NCC(=O)NCC(=O)O)[C@@H](C)CC [GS9-Ma] (Myristoyl-SESGIAWGG-OH) | > 128 |  |  |  |  | MIC ΔCDC50 (cdc50Δ mutant strain): > 128 mg/L
CCCCCCCCCCCCCC(=O)N[C@@H](Cc1c[nH]c2ccccc12)C(=O)NCC(=O)NCC(=O)N[C@H](C(=O)N[C@@H](C)C(=O)N[C@@H](C)C(=O)N[C@@H](CC(N)=O)C(=O)N[C@@H](Cc1ccc(O)cc1)C(=O)N[C@@H](C)C(=O)O)[C@@H](C)CC [K5A;K6A-Ma] (Myristoyl-WGGIAANYA-OH) |  |  |  |  |  | MIC [1]: >128 mg/L; percentage of cells with low propidium iodine (PI-A < 9 RU) and high AF350-annexin V intensity (Annexin V-A > 9 RU) [2]: 1.3 ± 0.9%
CCCCCCCCCCCCCC(=O)N[C@@H](CO)C(=O)NCC(=O)N[C@H](C(=O)N[C@@H](C)C(=O)N[C@@H](Cc1c[nH]c2ccccc12)C(=O)NCC(=O)NCC(=O)N[C@H](C(=O)N[C@@H](CCCCN)C(=O)O)[C@@H](C)CC)[C@@H](C)CC [KS9-Ma] (Myristoyl-SGIAWGGIK-OH) | > 128 |  |  |  |  | 
CCCCCCCCCCCCCC(=O)N[C@@H](Cc1c[nH]c2ccccc12)C(=O)NCC(=O)NCC(=O)N[C@H](C(=O)N[C@@H](C)C(=O)N[C@@H](CCCCN)C(=O)N[C@@H](CC(N)=O)C(=O)N[C@@H](Cc1ccc(O)cc1)C(=O)N[C@@H](C)C(=O)O)[C@@H](C)CC [Peptide K5A-Ma] (Myristoyl-WGGIAKNYA-OH) |  |  |  |  |  | MIC [1]: >128 mg/L; percentage of cells with low propidium iodine (PI-A < 9 RU) and high AF350-annexin V intensity (Annexin V-A > 9 RU) [2]: 5.6 ± 0.1%
CCCCCCCCCCCCCC(=O)N[C@@H](Cc1c[nH]c2ccccc12)C(=O)NCC(=O)NCC(=O)N[C@H](C(=O)N[C@@H](CCCCN)C(=O)N[C@@H](C)C(=O)N[C@@H](CC(N)=O)C(=O)N[C@@H](Cc1ccc(O)cc1)C(=O)N[C@@H](C)C(=O)O)[C@@H](C)CC [Peptide K6A-Ma] (Myristoyl-WGGIKANYA-OH) |  |  |  |  |  | MIC [1]: >128 mg/L
CCCCCCCCCCCCCC(=O)N[C@@H](Cc1ccc(O)cc1)C(=O)N[C@H](C(=O)N[C@@H](CC(=O)O)C(=O)NCC(=O)N[C@@H](Cc1ccccc1)C(=O)N1CCC[C@H]1C(=O)N[C@@H](CC(N)=O)C(=O)N[C@@H](CC(C)C)C(=O)N[C@@H](CCCNC(=N)N)C(=O)N[C@@H](CCC(=O)O)C(=O)N[C@@H](CC(=O)O)C(=O)N[C@@H](CCC(=O)O)C(=O)N[C@@H](Cc1c[nH]cn1)C(=O)N[C@@H](Cc1ccccc1)C(=O)N[C@@H](CCC(N)=O)C(=O)O)C(C)C [QY15-Ma] (Myristoyl-YVDGFPNLREDEHFQ-OH) | > 128 | 8 | 0.5 | 1 | 0.5 | 
H-SESGIAWGGIKKNYA-OH [AS15] | > 128 | 8 | 0.5 | 1 | 0.5 | 
H-YVDGFPNLREDEHFQ-OH [QY15] | > 128 | 8 | 0.5 | 1 | 0.5 | 
